{
  "source": "patent US12312308B2",
  "about": "“Salts and esters of APX3330 and therapeutic uses thereof” (Opus Genetics, Inc., priority 2022, dated 2025)",
  "test": "Dynamic vapor sorption (DVS) analysis",
  "assay_type": "physicochemical",
  "note": "Structures can show the parent of a compound that is named as a salt.",
  "data": [
    {"smiles": "CCCCCCCCC/C(=C\\C1=C(C)C(=O)C(OC)=C(OC)C1=O)C(=O)O", "note": "[Compound 1 calcium salt]", "values": [
      {"measurement": "maximum water adsorption", "setting": "DVS, at 82% RH", "result": "about 1.52%"},
      {"measurement": "water retained at the end of the desorption branch", "setting": "DVS, end of desorption branch", "result": 0.19, "unit": "%"},
      {"measurement": "crystalline form after DVS (subsequent XRPD analysis)", "setting": "post-DVS sample vs pre-DVS sample, XRPD", "result": "maintained the same crystalline form"}
    ]}
  ]
}
